Measurements from publication PMC4613501, “Diversity in the structures and ligand-binding sites of nematode fatty acid and retinol-binding proteins revealed by Na-FAR-1 from Necator americanus” (Biochemical Journal, 2015).

Tests used:
Format in all cases: binding
Na-FAR-1 [1] = molecular target: T1, Na-FAR-1 (Necator americanus, UniProt W2SRJ3); assay: fluorescence emission spectroscopy; settings: delipidated protein
T1 construct: gene NECAME_14208; His-tagged; expressed in E. coli BL21 (lambda DE3), selenomethionine form in B834
T1 sequence (W2SRJ3 entry or part of it): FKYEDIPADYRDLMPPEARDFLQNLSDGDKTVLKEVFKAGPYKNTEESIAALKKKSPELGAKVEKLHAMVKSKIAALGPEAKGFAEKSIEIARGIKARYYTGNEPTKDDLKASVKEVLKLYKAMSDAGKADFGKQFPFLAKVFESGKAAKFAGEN

Na-FAR-1 [2] = molecular target: T1, Na-FAR-1; assay: NMR titration ([…] HSQC chemical shift perturbation); settings: apo protein 0.4 mM, sodium oleate, 20 mM sodium phosphate pH 7.20, 311 K; multiple sites, no fitted constant
Na-FAR-1 [3] = molecular target: T1, Na-FAR-1; assay: X-ray crystallography; settings: selenomethionine-labelled protein; co-purified from E. coli, palmitate chosen as fit to a C16 fatty acid density; internal cavity around Lys96

## CN(C)c1cccc2c(S(=O)(=O)NCCCCCCCCCCC(=O)O)cccc12 [DAUDA]
Na-FAR-1 [1]; PBS, 1 μM DAUDA, 1 μM protein, excitation 345 nm
  fluorescence emission spectroscopy: Na-FAR-1 bound the fluorescent FA analogue DAUDA and the naturally fluorescent lipid retinol

## CCCCCCCC/C=C\CCCCCCCC(=O)O [oleic acid]
Na-FAR-1 [2]
  NMR titration (15N HSQC chemical shift perturbation): the protein binds up to at least four oleate molecules

## CCCCCCCCCCCCCCCC(=O)O [palmitate]
Na-FAR-1 [3]
  X-ray crystallography: Since the predominant FA found in E. coli lipids is palmitate, we fitted this

## CC1=C(/C=C/C(C)=C/C=C/C(C)=C/CO)C(C)(C)CCC1 [retinol]
Na-FAR-1 [1]; retinol in ethanol, 1.5 μM protein, excitation 350 nm, isomer not stated
  fluorescence emission spectroscopy: Na-FAR-1 bound the fluorescent FA analogue DAUDA and the naturally fluorescent lipid retinol
